Measured values reported in patent US5770691A, “Discriminatory substrates for MMP hydrolysis” (Regents of the University of Minnesota, priority 1995, dated 1998).
Where a SMILES comes first, the peptide text is derived from it. [ ]: non-standard residue; d: D form. The star is where a group is joined. Dnp = O=[N+]([O-])c1ccc(*)c([N+](=O)[O-])c1; Mca = COc1ccc2c(CC(=O)*)cc(=O)oc2c1; Nva = CCC[C@H](N)C(=O)O

Tests used:
MMP-1 [1] = target: T1, MMP-1 (Homo sapiens, UniProt P03956); settings: background, literature; cited from earlier work
T1 sequence (P03956 100-469): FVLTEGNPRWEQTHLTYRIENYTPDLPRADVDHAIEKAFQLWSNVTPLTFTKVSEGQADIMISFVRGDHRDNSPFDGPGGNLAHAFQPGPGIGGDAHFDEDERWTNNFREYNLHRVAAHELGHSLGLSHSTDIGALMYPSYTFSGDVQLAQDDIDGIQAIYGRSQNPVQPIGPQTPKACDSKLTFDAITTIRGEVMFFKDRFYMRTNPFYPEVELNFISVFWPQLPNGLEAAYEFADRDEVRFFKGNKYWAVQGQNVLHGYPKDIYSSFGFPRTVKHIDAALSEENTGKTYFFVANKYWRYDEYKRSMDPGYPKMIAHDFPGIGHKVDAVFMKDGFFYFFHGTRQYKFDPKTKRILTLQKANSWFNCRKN

MMP-9 [2] = target: T2, MMP-9 (Homo sapiens, UniProt P14780); settings: background, literature; cited from earlier work
Target sequence in this assay (P14780 94-707, species assumed): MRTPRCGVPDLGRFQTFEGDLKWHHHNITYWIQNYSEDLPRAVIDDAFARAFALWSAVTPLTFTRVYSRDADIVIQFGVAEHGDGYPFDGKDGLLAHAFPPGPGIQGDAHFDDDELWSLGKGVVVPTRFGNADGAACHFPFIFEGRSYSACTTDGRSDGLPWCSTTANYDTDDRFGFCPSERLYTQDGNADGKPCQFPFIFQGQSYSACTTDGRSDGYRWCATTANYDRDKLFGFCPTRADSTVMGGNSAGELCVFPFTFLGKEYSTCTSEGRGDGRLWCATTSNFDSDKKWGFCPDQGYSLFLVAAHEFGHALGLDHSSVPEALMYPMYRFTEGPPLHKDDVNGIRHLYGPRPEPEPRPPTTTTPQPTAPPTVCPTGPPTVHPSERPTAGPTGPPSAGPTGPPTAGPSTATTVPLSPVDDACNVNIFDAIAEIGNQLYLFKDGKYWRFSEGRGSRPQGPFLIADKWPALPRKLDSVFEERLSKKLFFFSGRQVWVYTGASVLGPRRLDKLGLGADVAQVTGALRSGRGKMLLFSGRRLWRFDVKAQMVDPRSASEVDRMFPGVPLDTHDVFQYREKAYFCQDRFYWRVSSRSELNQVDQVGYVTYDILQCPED

MMP-7 = target: T3, MMP-7 (Homo sapiens, UniProt P09237); settings: background, literature; cited from earlier work
T3 sequence (P09237 95-267): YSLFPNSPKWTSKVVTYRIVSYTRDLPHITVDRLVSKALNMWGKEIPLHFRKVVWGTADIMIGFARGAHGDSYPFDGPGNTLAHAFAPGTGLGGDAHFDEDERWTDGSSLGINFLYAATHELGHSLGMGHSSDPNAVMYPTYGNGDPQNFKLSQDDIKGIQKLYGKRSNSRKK

MMP-2 [3] = target: T4, MMP-2 (Homo sapiens, UniProt P08253); settings: background, literature; cited from earlier work
T4 sequence (P08253 110-660): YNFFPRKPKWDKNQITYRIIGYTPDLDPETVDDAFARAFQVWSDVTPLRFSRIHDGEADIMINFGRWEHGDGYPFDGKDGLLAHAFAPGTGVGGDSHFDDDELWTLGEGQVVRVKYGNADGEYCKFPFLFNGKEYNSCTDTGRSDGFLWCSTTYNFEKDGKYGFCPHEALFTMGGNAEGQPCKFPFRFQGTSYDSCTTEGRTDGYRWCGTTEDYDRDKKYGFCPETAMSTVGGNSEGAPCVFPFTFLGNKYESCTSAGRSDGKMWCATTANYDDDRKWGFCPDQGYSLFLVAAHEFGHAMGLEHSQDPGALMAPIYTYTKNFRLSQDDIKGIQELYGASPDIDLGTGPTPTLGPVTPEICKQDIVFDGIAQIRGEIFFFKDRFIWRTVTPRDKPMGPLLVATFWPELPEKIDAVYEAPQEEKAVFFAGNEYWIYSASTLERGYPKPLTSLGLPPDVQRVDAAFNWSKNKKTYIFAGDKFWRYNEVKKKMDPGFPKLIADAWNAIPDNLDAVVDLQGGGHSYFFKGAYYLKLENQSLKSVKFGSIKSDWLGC

MMP-3 [4] = target: T5, MMP-3 (Homo sapiens, UniProt P08254); settings: cited from earlier work; for kcat Km: MMP-3, assay at 37° C.; for hydrolyzed by MMP-3: background, literature
Target sequence in this assay (P08254 100-477, species assumed): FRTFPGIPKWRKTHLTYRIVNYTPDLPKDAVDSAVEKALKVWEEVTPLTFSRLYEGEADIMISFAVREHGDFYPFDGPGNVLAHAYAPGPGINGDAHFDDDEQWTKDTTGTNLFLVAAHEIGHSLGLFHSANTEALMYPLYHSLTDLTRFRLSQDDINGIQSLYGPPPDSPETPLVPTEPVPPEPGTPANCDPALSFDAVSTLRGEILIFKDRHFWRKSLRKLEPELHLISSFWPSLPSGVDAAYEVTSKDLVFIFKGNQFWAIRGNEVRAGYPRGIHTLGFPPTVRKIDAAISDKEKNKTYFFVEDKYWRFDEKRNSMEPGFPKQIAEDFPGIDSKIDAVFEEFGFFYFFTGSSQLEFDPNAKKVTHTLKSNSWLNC

MMP-3 [5] = target: T5, MMP-3; assay: Fluorometric hydrolysis of synthetic Mca/Lys(Dnp) substrates by MMP-3; format: biochemical; design: made in house; host or cells: native secreted protein purified from culture medium of human rheumatoid synovial cells; settings: Edman degradation analysis after 36-72 hour treatment of substrate with MMP
Target sequence in this assay (P08254 100-477): as the sequence (P08254 100-477, species assumed) above

Solubility of substrate = format: physicochemical; settings: 2.5% DMSO in water; read-out: soluble up to a concentration
MMP-9 [6] = target: T2, MMP-9; assay: Fluorometric hydrolysis of synthetic Mca/Lys(Dnp) substrates by MMP-9; format: biochemical; design: made in house; host or cells: native secreted protein purified from culture medium of HT-1080 cells
From the text: (§1) All MMPs were purified in zymogen form. ProMMP-1 (Suzuki et al., Biochem., 29, 10261 (1990)), proMMP-2 (Okada et al., Eur. J. Biochem., 194, 721 (1990)), and proMMP-3 (Ito et al., Arch. Biochem. Biophys., 267, 211 (1988)) were purified from the culture medium of human rheumatoid synovial cells stimulated with rabbit macrophage-conditioned medium. ProMMP-9 was purified from the culture medium of HT-1080 cells as described in Morodomi et al., Biochem. J., 285, 603 (1992). ProMMP-2 and proMMP-9 were activated by reacting with 1 mM 4-aminophenylmercuric acetate at 37° C. for 45 minutes and 32 hours, respectively. ProMMP-1 was activated by reacting with 1 mM 4-aminophenylmercuric acetate and an equimolar amount of MMP-3 at 37° C. for 6 hours. After activation, MMP-3 was completely removed from MMP-1 by affinity chromatography using an anti-MMP-3 IgG Affi-Gel 10 column. The resin, Affi-Gel 10 (Biorad, Emoryville, Calif.), was coupled to anti-MMP-3 IgG (Okada et al., Annals of Rheumat. Dis., 48, 645 (1989)) per the manufacturer's protocol. Pro-MMP-3 was activated by reacting with 5 μg/mL chymotrypsin at 37° C. for 2 hours. Chymotrypsin was inactivated with 2 mM diisopropylfluorophosphate. The amounts of active MMP-1, MMP-2, and MMP-3 were determined by titration with tissue inhibitor of metalloproteinase-1(TIMP1) over a concentration range of 0.1-3 μg/mL, while the amount of active MMP-9 was determined by titration with TIMP-2 (0.1-3 μg/mL). TIMP-1 was isolated from the medium of HT-1080 cells as described in Morodomi et al., Biochem J., 285, 603 (1992).
(§2) Substrates were prepared as 10 mM stock solutions in dimethylsulfoxide (DMSO). Fluorescent assays were performed at λex =325 nm and λem =393 nm, which should encounter no interference from Trp residues, using a Hitachi fluorescence spectrophotometer F-3010. Initial total hydrolysis assays were run at a substrate concentration of […] to avoid filtering effects. The change in fluorescence at this concentration was 110 based on total hydrolysis of 1 μM substrate. A typical assay was carried out by incubating 100 μL of various concentrations of a substrate with 10 μL of an enzyme solution (2-20 nM) in 50 mM Tris-HCl, pH 7.5, 0.15M NaCl, 10 mM CaCl2, 0.05% Brij 35, 0.02% NaN3. The reaction was stopped by addition of 900 μl of 3% (v/v) glacial acetic acid. MMP-3 activity at pH 6.0 was measured in 50 mM sodium acetate buffer, pH 6.0, instead of Tris-HCl buffer. The amount of substrate hydrolysis was calculated based on the fluorescence values of the Mca-Arg-Pro-Lys-Pro-Gln standard solution after substraction of the reaction blank value (stopping solution added before the enzyme). Individual kinetic parameters (kcat and KM) were determined over a substrate concentration range of 2.5-75 μM and calculated by double reciprocal plots.
Target sequence in this assay (P14780 107-707 limits assumed): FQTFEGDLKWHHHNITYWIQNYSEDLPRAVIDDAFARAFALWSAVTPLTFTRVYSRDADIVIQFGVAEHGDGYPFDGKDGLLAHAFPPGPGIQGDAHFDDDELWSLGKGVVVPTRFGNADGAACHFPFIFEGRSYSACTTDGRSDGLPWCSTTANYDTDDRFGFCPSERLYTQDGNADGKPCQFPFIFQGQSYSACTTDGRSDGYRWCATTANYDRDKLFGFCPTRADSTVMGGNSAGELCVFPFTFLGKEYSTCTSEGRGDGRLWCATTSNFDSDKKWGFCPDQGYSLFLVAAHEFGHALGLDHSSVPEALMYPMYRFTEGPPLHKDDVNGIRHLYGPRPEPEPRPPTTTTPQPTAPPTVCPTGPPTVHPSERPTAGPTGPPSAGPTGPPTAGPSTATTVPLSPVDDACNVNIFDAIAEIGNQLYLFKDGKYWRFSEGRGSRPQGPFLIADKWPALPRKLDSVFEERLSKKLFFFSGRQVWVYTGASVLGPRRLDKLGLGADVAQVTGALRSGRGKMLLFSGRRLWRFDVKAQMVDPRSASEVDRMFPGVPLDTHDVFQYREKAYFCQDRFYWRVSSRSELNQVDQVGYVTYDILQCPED

MMP-9 [7] = target: T2, MMP-9; assay: as above; format: biochemical; design: made in house; host or cells: native secreted protein purified from culture medium of HT-1080 cells; settings: Edman degradation analysis after 36-72 hour treatment of substrate with MMP
Target sequence in this assay (P14780 107-707 limits assumed): as above

MMP-3 [8] = target: T5, MMP-3; assay: Fluorometric hydrolysis of synthetic Mca/Lys(Dnp) substrates by MMP-3; format: biochemical; design: made in house; host or cells: native secreted protein purified from culture medium of human rheumatoid synovial cells; settings: for kcat /Km: pH 7.5
From the text: as §1, §2
Target sequence in this assay (P08254 100-477): as the sequence (P08254 100-477, species assumed) above

MMP-1 [9] = target: T1, MMP-1; assay: Fluorometric hydrolysis of synthetic Mca/Lys(Dnp) substrates by MMP-1; format: biochemical; design: made in house; host or cells: native secreted protein purified from culture medium of human rheumatoid synovial cells
From the text: as §1, §2

MMP-2 [10] = target: T4, MMP-2; assay: Fluorometric hydrolysis of synthetic Mca/Lys(Dnp) substrates by MMP-2; format: biochemical; design: made in house; host or cells: native secreted protein purified from culture medium of human rheumatoid synovial cells
From the text: as §1, §2

Dnp-Pro-Cha-Gly-Cys(CH3)-His-Ala-Lys(Nma)-NH2
hydrolyzed by MMP-1 (MMP-1 [1]): hydrolyzed | hydrolyzed by MMP-9 (MMP-9 [2]): hydrolyzed

Dnp-Pro-Leu-Gly-Leu-Trp-Ala-D-Arg-NH2 (Dnp-PLGLWA[dR]-NH2; SMILES CC(C)C[C@H](NC(=O)CNC(=O)[C@H](CC(C)C)NC(=O)[C@@H]1CCCN1c1ccc([N+](=O)[O-])cc1[N+](=O)[O-])C(=O)N[C@@H](Cc1c[nH]c2ccccc12)C(=O)N[C@@H](C)C(=O)N[C@H](CCCNC(=N)N)C(N)=O) [literature fluorogenic MMP substrate]
hydrolyzed by MMP-7 (MMP-7): hydrolyzed | hydrolyzed by MMP-2 (MMP-2 [3]): hydrolyzed | hydrolyzed by MMP-1 (MMP-1 [1]): hydrolyzed | kcat Km (MMP-3 [4]): 2,200 S^-1 M^-1 | hydrolyzed by MMP-3 (MMP-3 [4]): hydrolyzed

Mca--Pro--Leu--Gly"--"Leu--Dpa--Ala--Arg--NH2
hydrolyzed by MMP-7 (MMP-7): hydrolyzed | hydrolyzed by MMP-2 (MMP-2 [3]): hydrolyzed | hydrolyzed by MMP-1 (MMP-1 [1]): hydrolyzed | kcat Km (MMP-3 [4]): 23,000 S^-1 M^-1 | hydrolyzed by MMP-3 (MMP-3 [4]): hydrolyzed

CCC[C@H](NC(=O)[C@H](CCC(=O)O)NC(=O)[C@@H](NC(=O)[C@@H]1CCCN1C(=O)[C@H](CCCCN)NC(=O)[C@@H]1CCCN1C(=O)[C@H](CCCNC(=N)N)NC(=O)Cc1cc(=O)oc2cc(OC)ccc12)C(C)C)C(=O)N[C@@H](Cc1c[nH]c2ccccc12)C(=O)N[C@@H](CCCNC(=N)N)C(=O)N[C@@H](CCCCNc1ccc([N+](=O)[O-])cc1[N+](=O)[O-])C(N)=O [NFF-3, Mca-Arg-Pro-Lys-Pro-Val-Glu-Nva-Trp-Arg-Lys(Dnp)-NH2] (Mca-RPKPVE[Nva]WRK(Dnp)-NH2)
site of hydrolysis by MMP-3 (MMP-3 [5]): Glu--Nva bond | solubility (Solubility of substrate): ≥ 250 µM | hydrolysis by MMP-9 (MMP-9 [6]): very slowly hydrolyzed | site of hydrolysis by MMP-9 (MMP-9 [7]): multiple sites | kcat /Km (MMP-3 [8]; MMP-3, 25° C.): 65,700 S^-1 M^-1 | kcat /Km (MMP-3 [8]; MMP-3, 37° C.): 218,000 S^-1 M^-1 | hydrolysis by MMP-3 (MMP-3 [8]; comparison of synthetic substrates): most rapidly hydrolyzed fluorogenic MMP-3 substrate yet described | hydrolyzed faster than NFF-2 by MMP-3 (MMP-3 [8]; rate relative to NFF-2): 3.7 times | hydrolysis by MMP-1 (MMP-1 [9]): not hydrolyzed | hydrolysis by MMP-2 (MMP-2 [10]): not hydrolyzed
